Drawing on US7723393B2, “Cycloalkylidene compounds as selective estrogen receptor modulators” (GlaxoSmithKline LLC, priority 2005, dated 2010), this text covers melting point for three compounds.

In the case of `CC1(C)CC(=C(c2ccc(F)cc2)c2ccc(OCC#N)cc2)CC(C)(C)C1` [Example 7, ({4-[(4-Fluorophenyl)(3,3,5,5-tetramethylcyclohexylidene)methyl]phenyl}oxy)acetonitrile], the melting point (in general, the temperature, or range, at which the solid turns liquid) was in the range of 100 to 101 °C. Next, `CC1(C)CC(=C(c2ccccc2)c2ccc(OCCO)cc2)CC(C)(C)C1` [Example 3, 2-({4-[Phenyl(3,3,5,5-tetramethylcyclohexylidene)methyl]phenyl}oxy)ethanol]: 131 to 132 °C; `CC1(C)CC(=C(c2ccccc2)c2ccc(OCCOCCO)cc2)CC(C)(C)C1` [Example 4, 2-{[2-({4-[Phenyl(3,3,5,5-tetramethylcyclohexylidene)methyl]phenyl}oxy)ethyl]oxy}ethanol]: 116 to 117 °C.
